Results as given in patent publication US4363816A, “Tricyclic pyrroles, their compositions and their use” (BYK Gulden Lomberg Chemische Fabrik Gesellschaft mit …, priority 1981, dated 1982).
Where two headings read alike, the source gives them in different places.

Columns and labels:
gastric secretion = experiment: Inhibition of gastric secretion in rats; format: in vivo; conditions: 4 hours after administration of the antiulcerogenic ED50
Experimental: (§1) The effect of the compounds according to the invention on the formation, in rats, of gastric ulcers provoked by a pylorus ligature and 10 mg/kg of acetylsalicylic acid and on the inhibition of gastric secretion in rats is shown in the following table:
^(+) % inhibition of the gastric secretion (in %) 4 hours after
administration of the antiulcerogenic ED50
(§2) The antiulcerogenic action was tested in accordance with the method using the so-called Shay rat: Rats (female, 180 to 200 g, 4 animals per cage on a high grid) which had been fasted for 24 hours were subjected to ulcer provocation by pylorus ligature (under diethyl ether anaesthesia) and oral administration of 100 mg/10 ml/kg of acetylsalicyclic acid. The substances to be tested are administered orally (10 ml/kg) 1 hour before the pylorus ligature. The wound is closed by means of Michel clamps. 4 hours thereafter, the animals are killed under ether anaesthesia by atlas dislocation, and the stomach is removed. The stomach is opened longitudinally and fixed to a cork tile after the amount of gastric juice secreted (volume) has been determined, the number and size (=diameter) of ulcers present are determined with a stereomicroscope with 10-fold magnification. The product of the degree of severity (according to the following rating scale) and the number of ulcers serves as the individual ulcer index.

[1] = system: gastric ulcers provoked by a pylorus ligature and acetylsalicylic acid; experiment: Antiulcerogenic action (protective action on the stomach), Shay rat: pylorus ligature plus oral acetylsalicylic acid; format: in vivo, rats (female); conditions: for ED50: Rattus norvegicus, po, read-out: Protective action on the stomach, ED50
Experimental: as §1
(§3) compared with the control group
(§4) TQ = therapeutic quotient LD50 /ED50
as §2
(§5) ulcer diameter 0.1-1.4 mm 1
(§6) The reduction in the average ulcer index of each treated group compared with that of the control group (=100%) serves as a measure of the antiulcerogenic effect. The ED50 designates the dose which reduces the average ulcer index by 50%.

[2] = Determination of toxicity (LD50, intravenous, mice); conditions: mouse, in vivo; intravenous administration to mice; observation 7 days; dose at which 50% of the animals die
Experimental: LD50 = dose at which 50% of the animals die
The toxicity investigations are carried out on female NMRI mice (body weight: 23 to 30 g). The animals (5 animals per dose) receive feed and water ad libitum. Various doses of the substances are administered intravenously (injection time: 1 minute). The observation period is 7 days. The LD50 (the dose at which 50% of the animals die) is determined by means of linear regression.

[3] = Antiulcerogenic action (protective action on the stomach), Shay rat: pylorus ligature plus oral acetylsalicylic acid; format: in vivo, rats (female); conditions: rat, in vivo; LD50 i.v. mice / ED50 p.o. rats; read-out: TQ LD50/ED50 (therapeutic quotient)
Experimental: as §1, §3, §4, §2, §5, §6

With `CC1(C)[C@@H](OC(=O)CCC(=O)O)CC[C@]2(C)[C@H]3C(=O)C=C4[C@@H]5C[C@@](C)(C(=O)O)CC[C@]5(C)CC[C@@]4(C)[C@]3(C)CC[C@@H]12` [Serial No. 1, Carbenoxolone, reference compound] the “Gastric Secretion, % inhibition in rats” value (gastric secretion) was 7%, the ED50 [1] was 70 mg/kg and the “antiulcerogenic action, dose/action curve (in words)” value ([1]; Shay rat, up to 300 mg/kg for compound 1) was “the dose/action curve is then very severely flattened so that no substantial increase in the antiulcerogenic action can be achieved even at 300 mg/kg”.

For `CCN(CC)CC(=O)N1c2ccccc2NC(=O)c2c1c(C)cn2C` [Serial No. 5, 4-Diethylaminoacetyl-1,3-dimethyl-1,4,9,10-tetrahydropyrrolo[3,2-b][1,5]benzodiazepin-10-one], the “Gastric Secretion, % inhibition in rats” value (gastric secretion) was 20%, the LD50 at 168 h [2] was 105 mg/kg and the ED50 [1] was 6 mg/kg. It also gave a therapeutic quotient (LD50/ED50) [3] of 17.5.

In the case of `Cc1cn(C)c2c1N(C(=O)CN(C)C)c1ccccc1NC2=O` [Serial No. 6, 1,3-Dimethyl-4-dimethylaminoacetyl-1,4,9,10-tetrahydropyrrolo[3,2-b][1,5]benzodiazepin-10-one], the “Gastric Secretion, % inhibition in rats” value (gastric secretion) is reported as 10% and the ED50 ([1]; peroral administration to rats 1 hour before pylorus ligature, dose which reduces the ulcer index by 50% compared with the control group) is reported as 6.5 mg/kg.

In the case of `CCCN(CCC)CC(=O)N1c2ccccc2NC(=O)c2c1c(C)cn2C` [Serial No. 7, 1,3-Dimethyl-4-di-(n-propyl)aminoacetyl-1,4,9,10-tetrahydropyrrolo[3,2-b][1,5]benzodiazepin-10-one], the “Gastric Secretion, % inhibition in rats” value (gastric secretion) is reported as 10%, the LD50 at 168 h [2] is reported as 110 mg/kg and the ED50 [1] is reported as 6.5 mg/kg. It also gave a therapeutic quotient (LD50/ED50) [3] of 16.9.

For `Cc1cn(C)c2c1N(C(=O)CN1CCN(C)CC1)c1ccccc1NC2=O` [compound 2], the “Gastric Secretion, % inhibition in rats” value (gastric secretion) was 25%, the LD50 at 168 h [2] was 100 mg/kg and the ED50 [1] was 1.4 mg/kg. It also gave a therapeutic quotient (LD50/ED50) [3] of 71.4.

With `Cc1cn(C)c2c1N(C(=O)CN1CCCCC1)c1ccccc1NC2=O` [compound 3] the “Gastric Secretion, % inhibition in rats” value (gastric secretion) was 3%, the LD50 at 168 h [2] was 95 mg/kg and the ED50 [1] was 4.5 mg/kg. The therapeutic quotient (LD50/ED50) [3] was 21.1.

In the case of `Cc1cn(C)c2c1N(C(=O)CN1CCCC1)c1ccccc1NC2=O` [compound 4], the “Gastric Secretion, % inhibition in rats” value (gastric secretion) is reported as 0%, the LD50 at 168 h [2] is reported as 100 mg/kg and the ED50 [1] is reported as 2.2 mg/kg. For the same molecule, the therapeutic quotient (LD50/ED50) [3] was 45.5.

With `CCNCC(=O)N1c2ccccc2NC(=O)c2c1c(C)cn2C` [compound 8] the “Gastric Secretion, % inhibition in rats” value (gastric secretion) was 20%, the LD50 at 168 h [2] was 140 mg/kg and the ED50 [1] was 5.5 mg/kg. The therapeutic quotient (LD50/ED50) [3] was 25.5.

With `Cc1cn(C)c2c1N(C(=O)CCN1CCCC1)c1ccccc1NC2=O` [compound 9] the “Gastric Secretion, % inhibition in rats” value (gastric secretion) was 25%, the LD50 at 168 h [2] was 70 mg/kg and the ED50 [1] was 6 mg/kg. The therapeutic quotient (LD50/ED50) [3] was 11.7.

In the case of `Cc1cn(C)c2c1N(C(=O)CCN(C)C)c1ccccc1NC2=O` [compound 10], the “Gastric Secretion, % inhibition in rats” value (gastric secretion) is reported as 21%, the LD50 at 168 h [2] is reported as 120 mg/kg and the ED50 [1] is reported as 4.5 mg/kg. The therapeutic quotient (LD50/ED50) [3] was 26.7.
